Test results from ChEMBL document CHEMBL5543174, “A Nonbactericidal Anionic Antimicrobial Peptide Provides Prophylactic and Therapeutic Efficacies against Bacterial Infections in Mice by Immunomodulatory-Antithrombotic Duality” (J Med Chem, 2024).
Active and inactive are the calls of the source. The rule behind the calls is not given here.

Experiments:
[1] = test system: Staphylococcus haemolyticus; assay: Antimicrobial activity against Staphylococcus haemolyticus ATCC 29970 assessed as inhibition of microbial growth at <= 200 ug/ml incubated for 18 hrs by micro-broth dilution method; type: functional, organism-based; details: dose <= 200.0 µg/ml
Nakaseomyces glabratus = assay: Antimicrobial activity against Candida glabrata ATCC 66032 assessed as inhibition of microbial growth at <= 200 ug/ml incubated for 18 hrs by micro-broth dilution method; type: functional, organism-based; details: dose <= 200.0 µg/ml
Staphylococcus aureus [2] = assay: Antimicrobial activity against Staphylococcus aureus ATCC 25923 assessed as reduction in microbial colony forming unit at 200 ug/ml incubated for 1 to 4 hrs by time-kill kinetics based analysis; type: functional, organism-based; details: dose 200.0 µg/ml, time 1-4 hrs
Candida albicans = assay: Antimicrobial activity against Candida albicans ATCC 2002 assessed as reduction in microbial colony forming unit at 200 ug/ml incubated for 1 to 4 hrs by time-kill kinetics based analysis; type: functional, organism-based; details: dose 200.0 µg/ml, time 1-4 hrs
Staphylococcus aureus [3] = assay: Antimicrobial activity against Staphylococcus aureus ATCC 25923 assessed as reduction in metabolic activity at < 200 ug/ml incubated for 1 to 4 hrs by CCK-8 assay; type: functional, organism-based; details: dose < 200.0 µg/ml, time 1-4 hrs
Staphylococcus aureus [4] = assay: Antibacterial activity against Staphylococcus aureus ATCC 25923 infected in C57BL/6 mouse assessed as reduction in bacterial load at 10 mg/kg,ip administrated 5 hrs after bacterial infection; type: functional, organism-based
Escherichia coli [5] = assay: Antibacterial activity against Escherichia coli ATCC 25922 infected in C57BL/6 mouse assessed as reduction in IL-6 level in peritoneal fluid at 10 mg/kg,ip administrated 5 hrs after bacterial infection measured after 24 hrs by ELISA; type: functional, organism-based; details: time 19.0 hrs
Staphylococcus aureus [6] = assay: Antibacterial activity against Methicillin-resistant Staphylococcus aureus infected in C57BL/6 mouse assessed as reduction in TNF-alpha level in peritoneal fluid at 10 mg/kg,ip pre-administrated 5 hrs before bacterial infection measured after 24 hrs by ELISA; type: functional, organism-based; details: time 29.0 hrs
Escherichia coli [7] = assay: Antibacterial activity against Carbapenem-resistant Escherichia coli infected in C57BL/6 mouse assessed as reduction in IL-1beta level in peritoneal fluid at 10 mg/kg,ip administrated 5 hrs after bacterial infection measured after 24 hrs by ELISA; type: functional, organism-based; details: time 19.0 hrs
Staphylococcus aureus [8] = assay: Antibacterial activity against Staphylococcus aureus ATCC 25923 infected in C57BL/6 mouse assessed as reduction in IL-6 level in serum at 10 mg/kg,ip pre-administrated 5 hrs before bacterial infection measured after 24 hrs by ELISA; type: functional, organism-based; details: time 29.0 hrs
Staphylococcus aureus [9] = assay: Antibacterial activity against Staphylococcus aureus ATCC 25923 infected in C57BL/6 mouse assessed as reduction in IL-6 level in serum at 10 mg/kg,ip administrated 5 hrs after bacterial infection measured after 24 hrs by ELISA; type: functional, organism-based; details: time 19.0 hrs
Escherichia coli [10] = assay: Antibacterial activity against Escherichia coli ATCC 25922 infected in C57BL/6 mouse assessed as reduction in inflammatory injury in lung at 10 mg/kg,ip pre-administrated 5 hrs before bacterial infection measured after 24 hrs by hematoxylin and eosin staining based analysis; type: functional, organism-based; details: time 29.0 hrs
Staphylococcus aureus [11] = assay: Antibacterial activity against Methicillin-resistant Staphylococcus aureus infected in C57BL/6 mouse assessed as increase in survival rate at 10 mg/kg,ip administrated 5 hrs after bacterial infection measured after 7 days; type: functional, organism-based; details: time 7.0 day
Mus musculus [12] = assay: Immunomodulatory activity in clodronate liposome immunosuppressed C57BL/6 mouse with monocyte depletion model assessed as increase in number of monocyte in peritoneal lavage at 10 mg/kg,ip administration measured after 12 hrs by flow cytometry; type: functional, organism-based
Mus musculus [13] = assay: Immunomodulatory activity in cyclophosphamide immunosuppressed C57BL/6 mouse with neutrophil depletion model assessed as increase in number of neutrophil in peritoneal lavage at 10 mg/kg,ip administration measured after 24 hrs by flow cytometry; type: functional, organism-based
Peritoneal macrophage [14] = assay: Induction of chemotaxis in mouse Peritoneal macrophage assessed as upregulation of TNF-alpha expression at 25 to 100 ug/ml incubated for 6 hrs by ELISA; type: functional, cell-based; details: dose 25-100 µg/ml
Mus musculus [15] = assay: Induction of chemotaxis in C57BL/6 mouse assessed as upregulation of CXCL1 expression in peritoneal lavage at 10 mg/kg,ip administration measured at 5 to 24 hrs by ELISA; type: functional, organism-based; details: time 5-24 hrs
Mus musculus [16] = assay: Induction of chemotaxis in C57BL/6 mouse assessed as upregulation of CXCL2 expression in peritoneal lavage at 10 mg/kg,ip administration measured at 5 to 24 hrs by ELISA; type: functional, organism-based; details: time 5-24 hrs
Mus musculus [17] = assay: Induction of chemotaxis in C57BL/6 mouse assessed as upregulation of MCP-1 expression in peritoneal lavage at 10 mg/kg,ip administration measured at 5 to 24 hrs by ELISA; type: functional, organism-based; details: time 5-24 hrs
Peritoneal macrophage [18] = assay: Immunomodulatory activity in mouse Peritoneal macrophage assessed as decrease in LTA-induced TNF-alpha production at 25 to 100 ug/ml incubated for 6 hrs by ELISA; type: functional, cell-based; details: dose 25-100 µg/ml
Neutrophil [19] = assay: Induction of chemotaxis in mouse bone marrow derived neutrophil assessed as increase in neutrophil migration at 25 to 100 ug/ml incubated for 8 hrs by crystal violet staining based direct transwell assay; type: functional, cell-based; details: dose 25-100 µg/ml
Neutrophil [20] = assay: Induction of degranulation in mouse bone marrow derived neutrophil assessed as increase in BPI release at 25 to 100 ug/ml incubated for 6 hrs by ELISA; type: functional, cell-based; details: dose 25-100 µg/ml
[21] = test system: Peritoneal macrophage cell; assay: Induction of chemotaxis in mouse Peritoneal macrophage assessed as upregulation of CXCL1 production at 100 ug/ml preincubated with MTS510 followed by compound addition by ELISA; type: functional, cell-based; details: dose 100.0 µg/ml
Peritoneal macrophage [22] = assay: Induction of chemotaxis in mouse Peritoneal macrophage assessed as upregulation of MCP-1 production at 100 ug/ml preincubated with MTS510 followed by compound addition by ELISA; type: functional, cell-based; details: dose 100.0 µg/ml
Peritoneal macrophage [23] = assay: Immunoregulatory activity in mouse Peritoneal macrophage assessed as upregulation of p38 phosphorylation incubated for 1 hr by Western blotting analysis; type: functional, cell-based
Peritoneal macrophage [24] = assay: Immunoregulatory activity in mouse Peritoneal macrophage assessed as change in total p65 expression at 25 to 100 ug/ml incubated for 1 hr by Western blotting analysis; type: functional, cell-based; details: dose 25-100 µg/ml
Mus musculus [25] = assay: Antithrombotic activity in C57BL/6 mouse tail transection model assessed as increase in tail bleeding time at 30 mg/kg,SC administration; type: functional, organism-based
Mus musculus [26] = assay: Anticoagulation activity in mouse infected with Methicillin-resistant Staphylococcus aureus assessed as increase in plasma TFPI expression at 10 mg/kg,ip pre-administrated 5 hrs before bacterial infection measured after 24 hrs by ELISA; type: functional, organism-based; details: time 29.0 hrs
Mus musculus [27] = assay: Anticoagulation activity in mouse infected with Methicillin-resistant Staphylococcus aureus assessed as increase in plasma APC expression at 10 mg/kg,ip pre-administrated 5 hrs before bacterial infection measured after 24 hrs by ELISA; type: functional, organism-based; details: time 29.0 hrs
Mus musculus [28] = assay: Anticoagulation activity in mouse infected with Methicillin-resistant Staphylococcus aureus assessed as increase in plasma TFPI expression at 10 mg/kg,ip administrated 5 hrs after bacterial infection measured after 24 hrs by ELISA; type: functional, organism-based; details: time 19.0 hrs
Mus musculus [29] = assay: Anticoagulation activity in mouse infected with Methicillin-resistant Staphylococcus aureus assessed as increase in plasma APC expression at 10 mg/kg,ip administrated 5 hrs after bacterial infection measured after 24 hrs by ELISA; type: functional, organism-based; details: time 19.0 hrs

CC[C@H](C)[C@H](NC(=O)[C@@H]1CSSC[C@H](NC(=O)[C@H](CCC(=O)O)NC(=O)[C@@H](NC(=O)[C@H](CCCCN)NC(=O)[C@H](Cc2c[nH]cn2)NC(=O)[C@@H](NC(=O)[C@H](CCCCN)NC(=O)[C@H](CCC(=O)O)NC(=O)[C@H](C)NC(=O)[C@H](CCC(=O)O)NC(=O)[C@H](CCC(=O)O)NC(=O)[C@H](CCC(=O)O)NC(=O)[C@H](C)N)[C@@H](C)O)[C@@H](C)O)C(=O)N[C@@H](CC(C)C)C(=O)N[C@@H](CCC(=O)O)C(=O)N1)C(=O)N[C@@H](Cc1ccccc1)C(=O)N[C@H](C(=O)N[C@@H](CC(C)C)C(=O)N[C@@H](CC(C)C)C(=O)N1CCC[C@H]1C(=O)N1CCC[C@@H]1C(=O)N[C@H](C)C(=O)O)[C@@H](C)O
Activity [1]: inactive
Activity (Nakaseomyces glabratus): inactive
Activity (Staphylococcus aureus [2]): inactive
Activity (Candida albicans): inactive
Activity (Staphylococcus aureus [3]): inactive
Activity (Staphylococcus aureus [4]): Active
Activity (Escherichia coli [5]): Active
Activity (Staphylococcus aureus [6]): Active
Activity (Escherichia coli [7]): Active
Activity (Staphylococcus aureus [8]): Active
Activity (Staphylococcus aureus [9]): Active
Activity (Escherichia coli [10]): Active
Activity (Staphylococcus aureus [11]): Active
Activity (Mus musculus [12]): Active
Activity (Mus musculus [13]): inactive
Activity (Peritoneal macrophage [14]): inactive
Activity (Mus musculus [15]): inactive
Activity (Mus musculus [16]): inactive
Activity (Mus musculus [17]): inactive
Activity (Peritoneal macrophage [18]): inactive
Activity (Neutrophil [19]): inactive
Activity (Neutrophil [20]): Active
Activity [21]: Active
Activity (Peritoneal macrophage [22]): Active
Activity (Peritoneal macrophage [23]): Dose-Dependent Effect
Activity (Peritoneal macrophage [24]): inactive
Activity (Mus musculus [25]): inactive
Activity (Mus musculus [26]): Active
Activity (Mus musculus [27]): Active
Activity (Mus musculus [28]): Active
Activity (Mus musculus [29]): Active
